Assay [1] addresses CRBN-DDB1 (Homo sapiens, UniProt Q96SW2). Kind of assay: Fluorescence Polarization (FP) CRBN binding assay, probe TM-493 (FAM-BB-100). The settings on record: CRBN-DDB1, TM-493 probe, 60 min room temperature. The method, then:
Fluorescence Polarization (FP) Assay
Materials: PerkinElmer EnVision 2104 Multilabel Reader, PerkinElmer FITC FP dual emission Label 2100-8060, Corning 384-well microplate #4514, V-CMR-TM-493 (FAM-BB-100), and CRBN-DDB1-180605.
Methods: Dilution buffer (50 mM HEPES-Na pH 7.5, 100 mM NaCl, 2 mM DTT, and 0.005% Tween-20) and compound DMSO dilutions were prepared. 4× compound working solutions were made with 8% DMSO (4×) and 13.8 μL/well of dilution buffer was placed in a new 96-well plate and 1.2 μL/well of above compound DMSO dilutions were added to the wells. 40 nM (4×) TM-493 in dilution buffer was prepared from a 10 μM DMSO stock and 15 μL per well of the TM-493 working solution was transferred into the compound working solution. 160 nM (2×) CRBN-DDB1 working solution was prepared with Dilution Buffer and 10 μL/well were added into a 384-well plate. 10 μL per well of the TM-493/compound mixture were transferred into the 384-well plate. The “positive control” was sample without protein and compound in 2% DMSO. After incubation at room temperature for 60 min, data was collected and read on data on an EnVision with the following setting: Excitation Light (%): 100; Measurement Height: 9.4; G-Factor: 1; Detector Gain 1: 200; Detector Gain 2: 200; Flash Number: 100. Data was processed using GraphPad Prism 7.0
(§1) The compound numbers correspond to the compound numbers in Table 1.

Assay [2] has as its target His-tagged CRBN-DDB1 complex (Homo sapiens, UniProt Q96SW2). Kind of assay: Time-Resolved Fluorescence Resonance Energy Transfer (TR-FRET / HTRF) CRBN binding assay, displacement of Cy5-labeled thalidomide. The settings on record: His-CRBN-DDB1, Cy5-thalidomide 8 nM, 1 hour room temperature. The procedure:
Time-Resolved Fluorescence Resonance Energy Transfer (TR-FRET) Assay.
Equal volumes of His-tagged CRBN-DDB1 complex (56 nM) was mixed with Eu-cryptate labeled Anti-6HIS-monoclonal antibody (50× dilution from the commercial stock solution, Vender: Cisbio, Cat. #61HI2KLA) in a final buffer containing 20 mM HEPES pH 7.0, 150 mM NaCl, 0.005% Tween-20. […] The mixture were incubated at room temperature for 1 hour. FRET signals were measured on an EnVision plate reader (Perkin Elmer) by exciting at 340 nm and recording emission at both 615 nm as no FRET control and 665 nm as the FRET signals with a 60 microsecond delay. FRET efficiency was calculated as the ratio of fluorescent signals at […]. Quantitative loss of FRET efficiency as a function of compound concentrations was fitted by a four-parameter Logistic Function using GraphPad Prism 7.0 and the IC50 values were reported for each compound.
as §1
(Time-resolved FRET reads energy transfer from a long-lived donor to a nearby acceptor.)

The values that follow come from patent US20220281831A1, “FUSED-GLUTARIMIDE CRBN LIGANDS AND USES THEREOF” (Kymera Therapeutics, Inc., priority 2019, published 2022).

Usually IC50 stands for the midpoint of a concentration-inhibition curve. Lower therefore signals greater potency.

Sequence of His-tagged CRBN-DDB1 complex (Q96SW2 whole entry): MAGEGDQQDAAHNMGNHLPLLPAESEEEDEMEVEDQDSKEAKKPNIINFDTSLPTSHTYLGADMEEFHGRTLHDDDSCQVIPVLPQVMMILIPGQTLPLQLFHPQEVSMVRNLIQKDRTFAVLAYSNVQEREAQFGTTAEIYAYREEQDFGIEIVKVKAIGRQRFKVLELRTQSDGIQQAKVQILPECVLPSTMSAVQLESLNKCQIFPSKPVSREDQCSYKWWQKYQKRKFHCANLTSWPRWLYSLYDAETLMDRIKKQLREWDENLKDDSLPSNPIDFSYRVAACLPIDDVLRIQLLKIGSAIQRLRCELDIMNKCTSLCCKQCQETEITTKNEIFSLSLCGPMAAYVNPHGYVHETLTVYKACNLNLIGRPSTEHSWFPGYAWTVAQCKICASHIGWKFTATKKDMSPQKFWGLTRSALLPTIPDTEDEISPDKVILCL
Sequence of His-tagged CRBN-DDB1 complex (Q16531 whole entry partner): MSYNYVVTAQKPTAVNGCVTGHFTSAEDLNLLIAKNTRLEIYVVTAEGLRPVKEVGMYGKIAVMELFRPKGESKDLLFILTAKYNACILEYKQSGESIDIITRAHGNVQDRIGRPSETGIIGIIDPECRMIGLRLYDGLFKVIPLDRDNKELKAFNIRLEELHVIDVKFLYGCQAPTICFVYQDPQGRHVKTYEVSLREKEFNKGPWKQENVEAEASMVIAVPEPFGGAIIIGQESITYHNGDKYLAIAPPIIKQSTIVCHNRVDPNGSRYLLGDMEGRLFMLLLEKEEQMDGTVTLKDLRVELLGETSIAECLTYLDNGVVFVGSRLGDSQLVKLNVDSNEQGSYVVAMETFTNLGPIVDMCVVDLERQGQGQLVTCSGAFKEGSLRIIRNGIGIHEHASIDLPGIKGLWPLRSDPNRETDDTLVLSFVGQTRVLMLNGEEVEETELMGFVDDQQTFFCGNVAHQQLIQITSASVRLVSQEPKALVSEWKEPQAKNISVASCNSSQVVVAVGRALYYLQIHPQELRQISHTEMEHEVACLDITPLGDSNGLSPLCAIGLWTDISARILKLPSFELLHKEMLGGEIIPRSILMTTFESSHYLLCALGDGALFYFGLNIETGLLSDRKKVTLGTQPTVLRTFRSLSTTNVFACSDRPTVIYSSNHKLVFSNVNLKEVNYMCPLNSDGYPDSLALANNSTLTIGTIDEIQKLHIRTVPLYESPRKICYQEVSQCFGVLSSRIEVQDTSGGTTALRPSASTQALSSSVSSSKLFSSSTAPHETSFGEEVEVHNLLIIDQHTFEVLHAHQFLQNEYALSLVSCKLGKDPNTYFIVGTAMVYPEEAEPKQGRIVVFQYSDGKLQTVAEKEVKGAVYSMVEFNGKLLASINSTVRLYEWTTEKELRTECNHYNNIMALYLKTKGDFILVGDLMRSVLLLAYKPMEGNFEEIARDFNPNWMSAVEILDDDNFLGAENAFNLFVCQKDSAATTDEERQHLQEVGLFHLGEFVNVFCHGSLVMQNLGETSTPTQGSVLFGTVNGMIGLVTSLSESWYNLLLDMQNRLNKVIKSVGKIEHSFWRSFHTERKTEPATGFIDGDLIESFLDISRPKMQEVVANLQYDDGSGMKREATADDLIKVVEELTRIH
Sequence of CRBN-DDB1 (Q96SW2 whole entry): as the sequence (Q96SW2 whole entry) above
Sequence of CRBN-DDB1 (Q16531 whole entry partner): as the sequence (Q16531 whole entry partner) above

`O=C1Cc2cccc(Oc3ccccc3)c2CC(=O)N1` [Compound I-262] yielded an IC50 in assay [1] greater than 100 µM.

As for `Nc1ccccc1Oc1cccc2c1C(=O)NC(=O)C2` [Compound I-263], the half-inhibitory concentration (IC50) in assay [1] lay in the range of 30 to 100 µM.

As for `Cn1c(=O)[nH]c2cccc(Br)c2c1=O` [Compound I-190], the IC50 in assay [2] was greater than 100 µM.

`Cc1ccc(CN2C[C@@H]3C(=O)NC(=O)[C@@H]3C2)cc1` [Compound I-299] came in with an IC50 in assay [2] greater than 100 µM.

`O=C1Cc2cccc(NCc3ccccc3)c2C(=O)N1` [Compound I-281] gave an IC50 in assay [2] of less than 10 µM.

In assay [2], `O=C1NC(=O)[C@@H]2CN(c3cccc(O)c3)C[C@H]12` [Compound I-134] had an IC50 greater than 100 µM.

As to `O=C1NC(=O)[C@@H]2CN(C3Cc4ccccc4C3)C[C@H]12` [Compound I-289], in assay [2], the 50% inhibitory concentration (IC50) is greater than 100 µM.

In turn, `O=C1CC2(CCN(Cc3ccc(Cl)cc3)CC2)CC(=O)N1` [Compound I-343] came in with an IC50 in assay [2] greater than 100 µM.

For `CN1C(=O)C2(CC(=O)NC2=O)c2cc(N)ccc21` (stereo not drawn) [Compound I-183], the IC50 in assay [2] was greater than 100 µM.

In turn, `O=C1CC2(CCN(c3cccc4cnccc34)CC2)CC(=O)N1` [Compound I-104] displayed an IC50 in assay [2] greater than 100 µM.

`O=C1NC(=O)[C@@H]2CN(c3ccc(OC(F)(F)F)cc3)C[C@H]12` [Compound I-142] registered a half-inhibitory concentration (IC50) in assay [2] greater than 100 µM.

`O=C1NC(=O)[C@@H]2CN(CCc3ccccc3)C[C@H]12` [Compound I-298] showed an IC50 in assay [2] greater than 100 µM.

`Cc1cc(C(=O)N2C[C@@H]3C(=O)NC(=O)[C@@H]3C2)ccn1` [Compound I-310] had an IC50 in assay [2] greater than 100 µM.

For the compound `O=C1NC(=O)[C@@H]2CN(Cc3c[nH]c4ccccc34)C[C@H]12` [Compound I-288], the IC50 in assay [2] was greater than 100 µM.

In assay [2], `O=C1NC(=O)[C@@H]2CN(c3ccc(F)cc3)C[C@H]12` [Compound I-129] had an IC50 greater than 100 µM.

For the compound `O=C1CC2(CCN(c3cccc(OC(F)(F)F)c3)CC2)CC(=O)N1` [Compound I-102], in assay [2], the IC50 is greater than 100 µM.

For the compound `O=C1CC2(CCN(C(=O)c3ccc4ccoc4c3)CC2)CC(=O)N1` [Compound I-361], the half-inhibitory concentration (IC50) in assay [2] was greater than 100 µM.

On to `CN(C)c1ccc(CN2C[C@@H]3C(=O)NC(=O)[C@@H]3C2)cc1` [Compound I-294], for which, in assay [2], the concentration for half-maximal inhibition (IC50) was greater than 100 µM.

Take `O=C1CC2(CCN(C(=O)c3cnccn3)CC2)CC(=O)N1` [Compound I-359]: the IC50 in assay [2] was greater than 100 µM.

In the case of `Cn1c(=O)c2c(Br)cccc2n(C)c1=O` [Compound I-192], the IC50 in assay [2] is greater than 100 µM.

With `O=C1CC2(CCN(C(=O)c3cccc(C(F)(F)F)n3)CC2)CC(=O)N1` [Compound I-367], the IC50 in assay [2] is greater than 100 µM.

In turn, `COc1ccccc1C(=O)N1C[C@@H]2C(=O)NC(=O)[C@@H]2C1` [Compound I-182] came in with an IC50 in assay [2] greater than 100 µM.

In assay [2], `Cc1cccc(N2C[C@@H]3C(=O)NC(=O)[C@@H]3C2)c1` [Compound I-161] displayed a concentration for half-maximal inhibition (IC50) greater than 100 µM.

`CC(=O)Nc1ccc2c(c1)C(=O)NC2=O` [Compound I-326] gave an IC50 in assay [2] greater than 100 µM.

In turn, `O=C1CC2(CCN(Cc3c[nH]cn3)CC2)CC(=O)N1` [Compound I-339] came in with an IC50 in assay [2] greater than 100 µM.

As for `Cc1ccc(CN2C[C@@H]3C(=O)NC(=O)[C@@H]3C2)o1` [Compound I-314], the IC50 in assay [2] is greater than 100 µM.

In assay [2], `CC(=O)N1C[C@@H]2C(=O)NC(=O)[C@@H]2C1` [Compound I-284] displayed an IC50 greater than 100 µM.

Turning to `O=C1NC(=O)[C@@H]2CN(c3ccc4c(c3)CCO4)C[C@H]12` [Compound I-156], the IC50 in assay [2] was greater than 100 µM.

In the case of `O=C1CC2(CCN(C(=O)c3n[nH]c4ccccc34)CC2)CC(=O)N1` [Compound I-371], the IC50 in assay [2] is greater than 100 µM.

As for `O=C1NC(=O)[C@@H]2CN(C(=O)c3ccc4ccoc4c3)C[C@H]12` [Compound I-320], in assay [2], the IC50 was greater than 100 µM.

`O=C1CC2(CCN(c3cccc(O)c3)CC2)CC(=O)N1` [Compound I-97] registered a 50% inhibitory concentration (IC50) in assay [2] greater than 100 µM.

Turning to `Cc1cccc(C(=O)N2C[C@@H]3C(=O)NC(=O)[C@@H]3C2)c1` [Compound I-323], the IC50 in assay [2] was greater than 100 µM.

In the case of `CC(C)Oc1cccc(N2CCC3(CC2)CC(=O)NC(=O)C3)c1` [Compound I-101], the IC50 in assay [2] was greater than 100 µM.

For the compound `O=c1[nH]c(=O)c2c(Br)cccc2[nH]1` [Compound I-56, 5-Bromo-1,3-dihydroquinazoline-2,4-dione], the IC50 in assay [2] was greater than 100 µM.

With `COC(=O)c1ccc(N2CCC3(CC2)CC(=O)NC(=O)C3)cc1` [Compound I-162], the IC50 in assay [2] was greater than 100 µM.

The compound `O=c1[nH]c(=O)c2cc(Br)ccc2[nH]1` [Compound I-55, 6-Bromo-1,3-dihydroquinazoline-2,4-dione] gave an IC50 in assay [2] greater than 100 µM.

On to `N#Cc1ccccc1N1C[C@@H]2C(=O)NC(=O)[C@@H]2C1` [Compound I-148], for which the IC50 in assay [2] was greater than 100 µM.

As to `O=C1NC(=O)[C@@H]2CN(c3cccc(OC(F)(F)F)c3)C[C@H]12` [Compound I-139], in assay [2], the IC50 was greater than 100 µM.

Take `O=C1NC(=O)[C@@H]2CN(C(=O)c3ccc4ccccc4n3)C[C@H]12` [Compound I-167]: the IC50 in assay [2] was greater than 100 µM.

As to `O=C1NC(=O)[C@@H]2CN(c3ccc(F)cc3Cl)C[C@H]12` [Compound I-147], in assay [2], the 50% inhibitory concentration (IC50) is greater than 100 µM.

For the compound `Nc1ccc(N2C[C@@H]3C(=O)NC(=O)[C@@H]3C2)cc1` [Compound I-150], in assay [2], the 50% inhibitory concentration (IC50) is greater than 100 µM.

`CC(C)c1ccccc1Oc1cccc2c1C(=O)NC(=O)C2` [Compound I-211, 8-(2-Isopropylphenoxy)-2,4-dihydroisoquinoline-1,3-dione]: the IC50 in assay [2] is less than 10 µM.

In assay [2], `CN(Cc1ccccc1)C(=O)c1cccc2c1C(=O)NC(=O)C2` [Compound I-280] showed a concentration for half-maximal inhibition (IC50) of 30 to 100 µM.

For `O=C1CC2(CCN(C(=O)c3cncnc3)CC2)CC(=O)N1` [Compound I-366], in assay [2], the IC50 was greater than 100 µM.

As for `CN(C)C(=O)c1cccc(N2C[C@@H]3C(=O)NC(=O)[C@@H]3C2)c1` [Compound I-178], in assay [2], the IC50 is greater than 100 µM.

Take `Cc1ccc(CN2CCC3(CC2)CC(=O)NC(=O)C3)cc1` [Compound I-338]: the IC50 in assay [2] is greater than 100 µM.

For the compound `CC(C)(C)OC(=O)NCC#Cc1ccccc1Oc1cccc2c1C(=O)NC(=O)C2` [Compound I-212], the IC50 in assay [2] was 30 to 100 µM.

Turning to `O=C1CC2(CCN(C(=O)c3cccs3)CC2)CC(=O)N1` [Compound I-348], the 50% inhibitory concentration (IC50) in assay [2] was greater than 100 µM.

Compound `O=C1CC2(CCN(c3ccc(Oc4ccccc4)cc3)CC2)CC(=O)N1` [Compound I-114] gave an IC50 in assay [2] of 30 to 100 µM.

`CCCCOc1ccc(CN2C[C@@H]3C(=O)NC(=O)[C@@H]3C2)cc1` [Compound I-312] registered an IC50 in assay [2] greater than 100 µM.

For the compound `Nc1cccc(C(=O)N2C[C@@H]3C(=O)NC(=O)[C@@H]3C2)c1` [Compound I-169], in assay [2], the IC50 was greater than 100 µM.

`O=C1CC2(CCN(Cc3cc4ccccc4o3)CC2)CC(=O)N1` [Compound I-333] registered an IC50 in assay [2] greater than 100 µM.

With `O=C1CC2(CCN(Cc3ccc(-c4ccccc4)cc3)CC2)CC(=O)N1` [Compound I-346], the IC50 in assay [2] was greater than 100 µM.

In turn, `Cn1c(=O)[nH]c(=O)c2c(Br)cccc21` [Compound I-60, 5-bromo-1-methyl-3H-quinazoline-2,4-dione] displayed an IC50 in assay [2] greater than 100 µM.

Regarding `CC(C)(C)OC(=O)NCCCCCC#Cc1ccccc1Oc1cccc2c1C(=O)NC(=O)C2=O` [Compound I-242], in assay [2], the IC50 was less than 10 µM.

Regarding `O=C1CC2(CCN(c3cccc(F)c3)CC2)CC(=O)N1` [Compound I-99], in assay [2], the IC50 was greater than 100 µM.

As to `COc1ccc(C(=O)N2C[C@@H]3C(=O)NC(=O)[C@@H]3C2)cn1` [Compound I-324], the IC50 in assay [2] was greater than 100 µM.

For `O=C1CC2(CCN(C(=O)c3cccnn3)CC2)CC(=O)N1` [Compound I-350], the IC50 in assay [2] is greater than 100 µM.

In turn, `NC(=O)c1ccc(N2CCC3(CC2)CC(=O)NC(=O)C3)cc1` [Compound I-116] registered a 50% inhibitory concentration (IC50) in assay [2] greater than 100 µM.

In assay [2], `O=C1NC(=O)[C@@H]2CN(c3cccc(F)c3)C[C@H]12` [Compound I-135] registered an IC50 greater than 100 µM.

Compound `O=C1NC(=O)[C@@H]2CN(C3CCC3)C[C@H]12` [Compound I-163] showed an IC50 in assay [2] greater than 100 µM.

With `O=C1NC(=O)[C@@H]2CN(c3cccc4cnccc34)C[C@H]12` [Compound I-141], in assay [2], the IC50 is greater than 100 µM.

`Cc1cccc(CC(=O)N2C[C@@H]3C(=O)NC(=O)[C@@H]3C2)c1` [Compound I-305] registered a half-maximal inhibitory concentration (IC50) in assay [2] greater than 100 µM.
